Measured values taken from the NIST ThermoML archive (doi:10.1021/je060096y).
Numbers after ± are expanded uncertainties.

Details: for mass density: 298.15 K, 101.33 kPa, Liquid, Pycnometric method; for Glass transition temperature / Normal melting temperature: DTA; for Normal melting temperature: Crystal

Row | SMILES | mass density [kg/m3] | Glass transition temperature [°C] | Normal melting temperature [°C]
1 | CCCCCCCCn1cc[n+](C)c1.O=S(=O)([N-]S(=O)(=O)C(F)(F)F)C(F)(F)F | 1310 ± 20 | -86.00 ± 2 | 
2 | CCCC[n+]1ccc(C)cc1.O=S(=O)([N-]S(=O)(=O)C(F)(F)F)C(F)(F)F | 1350 ± 20 | -80.00 ± 2 | 10.00 ± 2
3 | CCCC[n+]1ccc(C)cc1.O=S(=O)([O-])C(F)(F)C(F)(F)C(F)(F)C(F)(F)F |  | -34.00 ± 2 | 70.00 ± 2
4 | CCCC[n+]1ccn(C)c1.O=S(=O)([N-]S(=O)(=O)C(F)(F)F)C(F)(F)F |  |  | -4.00 ± 2
5 | CCCCn1cc[n+](C)c1.O=S(=O)([O-])C(F)(F)F [1-butyl-3-methylimidazolium trifluoromethanesulfonate] |  |  | 15.00 ± 2
6 | CCCC[n+]1ccc(C)cc1.O=S(=O)([O-])C(F)(F)F [1-butyl-4-methylpyridinium trifluoromethanesulfonate] | 1170 ± 20 | -68.00 ± 2 | 38.00 ± 2
7 | CCCCCCCCn1cc[n+](C)c1.O=S(=O)([O-])C(F)(F)C(F)(F)C(F)(F)C(F)(F)F [1-methyl-3-octylimidazolium perfluorobutanesulfonate] | 1330 ± 20 | -86.00 ± 2 | 32.00 ± 2
8 | CCCCCCCCn1cc[n+](C)c1.O=S(=O)([O-])C(F)(F)F [1-octyl-3-methylimidazolium trifluoromethanesulfonate] | 1120 ± 20 | -80.00 ± 2 | 5.00 ± 2
9 | CCCCCCCCn1cc[n+](C)c1.N#C[N-]C#N [3-methyl-1-octylimidazolium dicyanamide] | 1000 ± 20 | -89.00 ± 2 | -5.00 ± 2
